Test results reported in PMC11985751, “Synthesis, bioactivity, and molecular docking studies: novel arylpiperazine derivatives as potential new-resistant AR antagonists” (Frontiers in Chemistry, 2025).

Experiments:
AR = biological target: T1, AR (Homo sapiens, UniProt P10275); assay: AR reporter gene (luciferase) assay, co-treatment with 1 nM R1881; format: cell-based; settings: 10 μM compound, inhibition rate as ratio to R1881 control, read-out: AR antagonistic activity% (10 μM)
T1 sequence (P10275 1-920): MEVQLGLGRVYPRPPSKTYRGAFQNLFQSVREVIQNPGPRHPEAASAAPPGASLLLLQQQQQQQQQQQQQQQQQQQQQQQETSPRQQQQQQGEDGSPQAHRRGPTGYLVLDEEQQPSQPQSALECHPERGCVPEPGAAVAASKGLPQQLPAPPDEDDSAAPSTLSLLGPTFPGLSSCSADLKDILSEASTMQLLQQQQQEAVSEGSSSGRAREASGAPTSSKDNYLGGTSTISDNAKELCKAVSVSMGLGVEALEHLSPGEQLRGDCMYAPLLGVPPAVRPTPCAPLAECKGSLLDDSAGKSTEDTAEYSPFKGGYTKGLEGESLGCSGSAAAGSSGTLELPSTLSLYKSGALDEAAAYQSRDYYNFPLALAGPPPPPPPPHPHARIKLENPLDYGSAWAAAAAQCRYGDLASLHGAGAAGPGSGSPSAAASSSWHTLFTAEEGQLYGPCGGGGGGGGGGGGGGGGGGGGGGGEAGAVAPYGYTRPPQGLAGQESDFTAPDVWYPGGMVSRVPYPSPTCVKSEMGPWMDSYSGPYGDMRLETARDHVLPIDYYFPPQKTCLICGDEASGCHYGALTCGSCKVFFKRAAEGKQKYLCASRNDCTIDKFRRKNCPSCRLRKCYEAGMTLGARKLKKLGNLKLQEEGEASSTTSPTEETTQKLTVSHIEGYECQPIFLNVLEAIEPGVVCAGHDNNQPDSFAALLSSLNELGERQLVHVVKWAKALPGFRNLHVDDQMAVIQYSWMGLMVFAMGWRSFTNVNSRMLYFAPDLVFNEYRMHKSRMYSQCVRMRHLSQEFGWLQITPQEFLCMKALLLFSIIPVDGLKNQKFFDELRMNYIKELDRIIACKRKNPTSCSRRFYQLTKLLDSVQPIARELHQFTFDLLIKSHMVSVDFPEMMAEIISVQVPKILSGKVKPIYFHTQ
Procedure: RLUs were measured using a luminometer (GloMaxTM 96-Microplate Luminometer, Promega) and are reported as the mean ± SEM of three individual experiments. For agonists, fold of induction = LUinduced/RLUuninduced. For antagonists, % of control = 100 × RLU (agonist + antagonist)/RLU (agonist alone). All RLUs were normalized against ffreffy RLUs/Renilla RLUs. Data are expressed as EC50/IC50 values in μM, and the IC50 of […] (μM) was calculated by plotting the data using nonlinear regression analysis in Graph-Pad Prism 5 software.

LNCaP = assay: In vitro cytotoxicity, CCK-8 assay; format: cell-based, human; settings: Homo sapiens, LNCaP, LNCaP cells, CCK-8, mean ± SD of three trials
Procedure: (§1) PC-3 and WPMY-1 cells were cultured in Dulbecco’s modiffcation Eagle’s medium (DMEM, Invitrogen, Carlsbad, CA, United States) supplemented with 10% fetal bovine serum (FBS, Hyclone, Logan, UT, United States), 100 U/mL penicillin and 0.1 mg/mL streptomycin (Invitrogen). DU145 cells were cultured in RPMI1640 media supplemented with 10% fetal bovine serum (FBS, Hyclone), 100 U/mL penicillin and 0.1 mg/mL streptomycin (Invitrogen). LNCaP cells were cultured in F12 media supplemented with 10% fetal bovine serum (FBS, Hyclone), 100 U/mL penicillin and 0.1 mg/mL streptomycin (Invitrogen). The cells were incubated at 37°C in a humidified atmosphere with 5% CO2([Chen et al., 2025]; [Jiang et al., 2024]).
The proliferative capacity of cells was evaluated through the implementation of a Cell Counting Kit-8 (CCK-8) assay, supplied by Dojindo (Japan), to quantify cellular growth. Post-transfection, cells were dispensed into a 96-well microplate at a density of 3 × 10^3 cells per well and incubated for intervals of 0, 24, 48, 72, 96, and 120 h. Following this, 10 μL of the CCK-8 solution was introduced into each well and the plates were returned to the incubator for an additional 2-h period at 37°C under 5% CO2 conditions. Absorbance readings at 450 nm were subsequently taken using an ELISA reader manufactured by Bio Tek (United States) ([Chen et al., 2022]; [Zhou et al., 2024]).
(§2) The compound concentrations were set at 30, 15, 7.5, 3.75, 1.88, and 0.94 μmol/L. The absorbance (A) was measured at 450 nm using a microplate reader. […] All experiments were repeated three times under identical conditions, and the mean value was taken as the final result.
(§3) The cytotoxic activity of derivatives 5–24 against three human prostate cancer cell lines (PC-3, LNCaP, and DU145) and one type of human normal prostate epithelial cells was evaluated using the CCK-8 method.

AR-LBD (GST) = biological target: T2, AR-LBD (GST) (Rattus norvegicus, UniProt P15207); assay: Fluorescence polarization, PolarScreen AR Competitor Assay, Green
T2 sequence (P15207 651-882 limits assumed): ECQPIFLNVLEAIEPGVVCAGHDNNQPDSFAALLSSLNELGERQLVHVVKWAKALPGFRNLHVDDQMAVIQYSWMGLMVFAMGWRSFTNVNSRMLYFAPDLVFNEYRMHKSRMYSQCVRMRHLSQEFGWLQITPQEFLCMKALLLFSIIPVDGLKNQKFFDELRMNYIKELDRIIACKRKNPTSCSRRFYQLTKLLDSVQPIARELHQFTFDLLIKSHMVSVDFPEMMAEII
Procedure: Brieffy, the assay entails titration of the test compound against a preformed complex of Fluormone™AL Green and the AR-LBD (GST). […] Data analysis for the ligand binding assays was performed using Prism software (GraphPad Software, Inc.).

PC-3 = assay: In vitro cytotoxicity, CCK-8 assay; format: cell-based, human; settings: CCK-8, mean ± SD of three trials
Procedure: as §1, with “2024]). […]” for “2024]).”
as §2, §3

DU145 = assay: In vitro cytotoxicity, CCK-8 assay; format: cell-based; settings: Homo sapiens, DU-145; DU145 cells, CCK-8, mean ± SD of three trials
Procedure: as §1, with “2024]). […]” for “2024]).”
as §2, §3

WPMY-1 = assay: In vitro cytotoxicity, CCK-8 assay (normal prostatic epithelial cells); format: cell-based; settings: Homo sapiens; WPMY-1 normal prostatic epithelial cells, CCK-8, mean ± SD of three trials
Procedure: as §1, with “2024]). […]” for “2024]).”
as §2, §3

Row | activity at 10 µM (AR) [%] | IC50 (AR-LBD (GST)) [µM] | Structure (SMILES) | IC50 (LNCaP) [µM] | IC50 (PC-3; Homo sapiens, PC-3, PC-3 cells) [µM] | IC50 (PC-3; PC-3 cells) [µM] | IC50 (DU145) [µM] | IC50 (WPMY-1) [µM]
1 | 47.3 ± 0.6 | 2.87 ± 0.22 | FC(F)(F)c1ccc(OCCc2ccc(CN3CCN(C(c4ccccc4)c4ccccc4)CC3)cc2)cc1 [Compound 24, 1-benzhydryl-4-(4-(2-(4-(trifluoromethyl)phenoxy)ethyl)benzyl)piperazine] | 14.6 ± 0.18 | < 5 | 3.94 ± 0.14 | 5.76 ± 0.14 | > 50
2 | 50.1 ± 1.1 | 2.15 ± 0.13 | Cc1cc(C)cc(OCCc2ccc(CN3CCN(C(c4ccccc4)c4ccccc4)CC3)cc2)c1 [Compound 7, 1-benzhydryl-4-(4-(2-(3,5-dimethylphenoxy)ethyl)benzyl)piperazine] | > 50 | < 5 | 2.95 ± 0.04 | 24.76 ± 0.21 | > 50
3 | 49.4 ± 0.8 | 2.74 ± 0.16 | Clc1ccc(OCCc2ccc(CN3CCN(C(c4ccccc4)c4ccccc4)CC3)cc2)cc1 [Compound 21, 1-benzhydryl-4-(4-(2-(4-chlorophenoxy)ethyl)benzyl)piperazine] | 16.09 ± 0.12 | < 5 | 2.83 ± 0.21 | 13.7 ± 0.14 | 28.65 ± 0.13
